Earlier results, collected in paper PMC8952239, “Injectable Biodegradable Silica Depot: Two Months of Sustained Release of the Blood Glucose Lowering Peptide, Pramlintide” (Pharmaceutics, 2022).
Each block holds one molecule with its values, some of them ahead of it. Bridge positions count the residues as written; N and C are the ends. Ends that are not written are not given here.

Key:
[1] = weak acid; no reference given
Text: In this communication, we highlight a sustained delivery strategy for in vivo delivery of the synthetic peptide analogue of amylin, pramlintide acetate. As mentioned earlier, amylin is the endogenous hormone co-secreted with insulin by the pancreas for glucose metabolism in vivo. […] Such effects can be moderated either by decreasing the single dosing of preprandial ins ...

lean rats = test system: lean rats
Text: (Figure 6). […] The findings for bodyweight loss mirror very well previously published data in lean rats. Roth et al. show body weight returning to baseline levels 8 days after the start of amylin treatment in an experiment assessing the effect ...

rats = test system: rats
Experimental: In an earlier preclinical study of pramlintide in rats, the peak plasma concentration of pramlintide at 50% maximally effective gastric inhibitory dose was reported to be 15 pM. The lower dose (5 mg/kg) formulation in the present study seems to achieve this concentration level by the end of the study.

pKa [1]: 9.84
Molecule: O[Si](O)(O)O [silicic acid]

Molecule: amylin: endogenous hormone co-secreted with insulin by the pancreas (KCNTATCATQRLANFLVHSSNNFGAILSSTNVGSNTY; Islet amyloid polypeptide; UniProt P10997 34-70, looked up)
time after start of treatment at which body weight returned to baseline levels (lean rats; continuous subcutaneous amylin infusion over 24 days): 8 days
period with significant effects on food intake (lean rats; lean animals, minipump over 14 days): 6 days

Molecule: pramlintide acetate (KCNTATCATQRLANFLVHSSNNFGPILPPTNVGSNTY-NH2; disulfide 2-7 (inferred); also: acetate salt; UniProt P10997 34-70, looked up, variant A25P S28P S29P) [synthetic analogue of amylin, adjunct to preprandial insulin therapy]
peak plasma concentration at 50% maximally effective gastric inhibitory dose (rats): 15 pM
